In brackets after ≈: the same amount, converted by molar mass.
Assays:
Parameters in all cases: agar dilution MIC, growth inhibition of clinical Burkholderia isolates
[1] = tested on: T1, B. multivorans AU23365; test: microbe, parasite or virus in culture; conditions: Burkholderia multivorans, AU23365
T1 construct: AU23365
Source text: (§1) We evaluated the activity of cefepime-taniborbactam against a panel of 140 Bcc clinical isolates (i.e., species ambifaria, arboris, cenocepacia, cepacia, contaminans, diffusa, dolosa, multivorans, pseudomultivorans, pyrrocinia, seminalis, stabilis, ubonensis, and vietnamiensis) and 10 B. gladioli from the Burkholderia cepacia Research Laboratory and Repository (University of Michigan) ([22], [25], [31]) (Supplementary Material, Tables S1 and S2). K. pneumoniae ATCC 700603 carrying bla SHV-18 and K. pneumoniae ATCC BAA-1705 harboring bla KPC strains were used as controls for β-lactam and β-lactamase inhibitor integrity; all controls tested within the anticipated quality control ranges (Table S3). Minimum inhibitory concentration (MIC) results were interpreted using Clinical Laboratory Standards Institute (CLSI) breakpoints, where available ([32]). […] An alternative cefepime-taniborbactam provisional susceptible breakpoint of ≤16 µg/mL is supported by in vivo efficacy data from neutropenic murine infection models (thigh, complicated urinary tract, and lung) ([15] [–] [17]) and data from safety and pharmacokinetics studies in human volunteers ([33], [34]). The cefepime-taniborbactam antimicrobial activity was compared to cefepime, meropenem, meropenem-vaborbactam, and levofloxacin, to data published for first-line agents (e.g., ceftazidime and trimethoprim-sulfamethoxazole) and to those recommended by the CLSI for clinical testing (e.g., minocycline) against the Bcc and B. gladioli panel ([22], [32]). Of note, the MICs of all these agents were determined by the agar dilution method, which alongside broth microdilution, are recommended by the CLSI to assess the antimicrobial susceptibility of Bcc isolates ([32]).

[2] = tested on: T2, B. cenocepacia AU14381; test: microbe, parasite or virus in culture; conditions: Burkholderia cenocepacia, AU14381
T2 construct: AU14381
Source text: as §1

[3] = tested on: T3, Burkholderia cepacia complex Bcc Indeterminate AU19076; test: microbe, parasite or virus in culture; conditions: Burkholderia cepacia
T3 construct: AU19076
Source text: as §1

[4] = tested on: T4, B. cepacia AU1555; test: microbe, parasite or virus in culture; conditions: Burkholderia cepacia, AU1555
T4 construct: AU1555
Source text: as §1

[5] = tested on: T5, B. cepacia AU15249; test: microbe, parasite or virus in culture; conditions: Burkholderia cepacia, AU15249
T5 construct: AU15249
Source text: as §1

[6] = tested on: T6, B. cenocepacia AU17796; test: microbe, parasite or virus in culture; conditions: Burkholderia cenocepacia, AU17796
T6 construct: AU17796
Source text: as §1

[7] = tested on: T7, B. cepacia AU15677; test: microbe, parasite or virus in culture; conditions: Burkholderia cepacia, AU15677
T7 construct: AU15677
Source text: as §1

[8] = tested on: T8, B. cepacia AU16396; test: microbe, parasite or virus in culture; conditions: Burkholderia cepacia, AU16396
T8 construct: AU16396
Source text: as §1

[9] = tested on: T9, B. cenocepacia AU19684; test: microbe, parasite or virus in culture; conditions: Burkholderia cenocepacia, AU19684
T9 construct: AU19684
Source text: as §1

[10] = tested on: T10, B. cenocepacia AU19530; test: microbe, parasite or virus in culture; conditions: Burkholderia cenocepacia, AU19530
T10 construct: AU19530
Source text: as §1

[11] = tested on: T11, B. diffusa AU19637; test: organism not typed
T11 construct: AU19637
Source text: as §1

[12] = tested on: T12, B. cenocepacia AU20545; test: microbe, parasite or virus in culture; conditions: Burkholderia cenocepacia, AU20545
T12 construct: AU20545
Source text: as §1

[13] = tested on: T13, B. multivorans AU27706; test: microbe, parasite or virus in culture; conditions: Burkholderia multivorans, AU27706
T13 construct: AU27706
Source text: as §1

[14] = tested on: T14, B. cenocepacia AU21083; test: microbe, parasite or virus in culture; conditions: Burkholderia cenocepacia, AU21083
T14 construct: AU21083
Source text: as §1

[15] = tested on: T15, B. multivorans AU19564; test: microbe, parasite or virus in culture; conditions: Burkholderia multivorans, AU19564
T15 construct: AU19564
Source text: as §1

[16] = tested on: T16, B. ubonensis AU7314; test: organism not typed
T16 construct: AU7314
Source text: as §1

[17] = tested on: T17, B. multivorans AU15814; test: microbe, parasite or virus in culture; conditions: Burkholderia multivorans, AU15814
T17 construct: AU15814
Source text: as §1

[18] = tested on: T18, B. cenocepacia AU28111; test: microbe, parasite or virus in culture; conditions: Burkholderia cenocepacia, AU28111
T18 construct: AU28111
Source text: as §1

[19] = tested on: T19, B. multivorans AU16734; test: microbe, parasite or virus in culture; conditions: Burkholderia multivorans, AU16734
T19 construct: AU16734
Source text: as §1

[20] = tested on: T20, B. multivorans AU21015; test: microbe, parasite or virus in culture; conditions: Burkholderia multivorans, AU21015
T20 construct: AU21015
Source text: as §1

[21] = tested on: T21, B. cenocepacia AU9292; test: microbe, parasite or virus in culture; conditions: Burkholderia cenocepacia, AU9292
T21 construct: AU9292
Source text: as §1

[22] = tested on: T22, B. contaminans AU20979; test: organism not typed
T22 construct: AU20979
Source text: as §1

Compound | MIC [1] | MIC [2] | MIC [3] | MIC [4] | MIC [5] | MIC [6] | MIC [7] | MIC [8] | MIC [9] | MIC [10] | MIC [11] | MIC [12] | MIC [13] | MIC [14] | MIC [15] | MIC [16] | MIC [17] | MIC [18] | MIC [19] | MIC [20] | also measured
CO/N=C(\C(=O)N[C@@H]1C(=O)N2C(C(=O)[O-])=C(C[N+]3(C)CCCC3)CS[C@H]12)c1csc(N)n1 [cefepime] | > 32 µg/mL | 32 µg/mL (≈ 66.6 µM) | 16 µg/mL (≈ 33.3 µM) | > 32 µg/mL | 32 µg/mL (≈ 66.6 µM) | 16 µg/mL (≈ 33.3 µM) | 32 µg/mL (≈ 66.6 µM) | 32 µg/mL (≈ 66.6 µM) | > 32 µg/mL | > 32 µg/mL | 32 µg/mL (≈ 66.6 µM) | 8 µg/mL (≈ 16.6 µM) | 1 µg/mL (≈ 2.08 µM) | 16 µg/mL (≈ 33.3 µM) | 16 µg/mL (≈ 33.3 µM) | > 32 µg/mL | 32 µg/mL (≈ 66.6 µM) | 32 µg/mL (≈ 66.6 µM) | 16 µg/mL (≈ 33.3 µM) | > 32 µg/mL | MIC [21]: 32 µg/mL (≈ 66.6 µM); MIC [22]: > 32 µg/mL
C[C@H]1COc2c(N3CCN(C)CC3)c(F)cc3c(=O)c(C(=O)O)cn1c23 [levofloxacin] | 8 µg/mL (≈ 22.1 µM) | > 32 µg/mL | 4 µg/mL (≈ 11.1 µM) | 16 µg/mL (≈ 44.3 µM) | 4 µg/mL (≈ 11.1 µM) | 8 µg/mL (≈ 22.1 µM) | 4 µg/mL (≈ 11.1 µM) | > 32 µg/mL | > 32 µg/mL | 16 µg/mL (≈ 44.3 µM) | 2 µg/mL (≈ 5.53 µM) | 2 µg/mL (≈ 5.53 µM) | 1 µg/mL (≈ 2.77 µM) | 2 µg/mL (≈ 5.53 µM) | 8 µg/mL (≈ 22.1 µM) | 4 µg/mL (≈ 11.1 µM) | 16 µg/mL (≈ 44.3 µM) | 4 µg/mL (≈ 11.1 µM) | 8 µg/mL (≈ 22.1 µM) | 32 µg/mL (≈ 88.6 µM) | MIC [21]: 32 µg/mL (≈ 88.6 µM); MIC [22]: 32 µg/mL (≈ 88.6 µM)
C[C@@H](O)[C@H]1C(=O)N2C(C(=O)O)=C(S[C@@H]3CN[C@H](C(=O)N(C)C)C3)[C@H](C)[C@H]12 [meropenem] | 8 µg/mL (≈ 20.9 µM) | 4 µg/mL (≈ 10.4 µM) | 4 µg/mL (≈ 10.4 µM) | 8 µg/mL (≈ 20.9 µM) | 4 µg/mL (≈ 10.4 µM) | 4 µg/mL (≈ 10.4 µM) | 4 µg/mL (≈ 10.4 µM) | 8 µg/mL (≈ 20.9 µM) | 8 µg/mL (≈ 20.9 µM) | 8 µg/mL (≈ 20.9 µM) | 2 µg/mL (≈ 5.22 µM) | 2 µg/mL (≈ 5.22 µM) | 0.5 µg/mL (≈ 1.3 µM) | 4 µg/mL (≈ 10.4 µM) | 4 µg/mL (≈ 10.4 µM) | 32 µg/mL (≈ 83.4 µM) | > 32 µg/mL | 4 µg/mL (≈ 10.4 µM) | 16 µg/mL (≈ 41.7 µM) | 16 µg/mL (≈ 41.7 µM) | MIC [21]: 4 µg/mL (≈ 10.4 µM); MIC [22]: 8 µg/mL (≈ 20.9 µM)

From PMC10648927, “Examining the activity of cefepime-taniborbactam against Burkholderia cepacia complex and Burkholderia gladioli isolated from cystic fibrosis patients in the United States” (Antimicrobial Agents and Chemotherapy, 2023)
